Biological target: T1, IKKα (Mus musculus, UniProt Q60680)
T1 sequence (Q60680 1-745): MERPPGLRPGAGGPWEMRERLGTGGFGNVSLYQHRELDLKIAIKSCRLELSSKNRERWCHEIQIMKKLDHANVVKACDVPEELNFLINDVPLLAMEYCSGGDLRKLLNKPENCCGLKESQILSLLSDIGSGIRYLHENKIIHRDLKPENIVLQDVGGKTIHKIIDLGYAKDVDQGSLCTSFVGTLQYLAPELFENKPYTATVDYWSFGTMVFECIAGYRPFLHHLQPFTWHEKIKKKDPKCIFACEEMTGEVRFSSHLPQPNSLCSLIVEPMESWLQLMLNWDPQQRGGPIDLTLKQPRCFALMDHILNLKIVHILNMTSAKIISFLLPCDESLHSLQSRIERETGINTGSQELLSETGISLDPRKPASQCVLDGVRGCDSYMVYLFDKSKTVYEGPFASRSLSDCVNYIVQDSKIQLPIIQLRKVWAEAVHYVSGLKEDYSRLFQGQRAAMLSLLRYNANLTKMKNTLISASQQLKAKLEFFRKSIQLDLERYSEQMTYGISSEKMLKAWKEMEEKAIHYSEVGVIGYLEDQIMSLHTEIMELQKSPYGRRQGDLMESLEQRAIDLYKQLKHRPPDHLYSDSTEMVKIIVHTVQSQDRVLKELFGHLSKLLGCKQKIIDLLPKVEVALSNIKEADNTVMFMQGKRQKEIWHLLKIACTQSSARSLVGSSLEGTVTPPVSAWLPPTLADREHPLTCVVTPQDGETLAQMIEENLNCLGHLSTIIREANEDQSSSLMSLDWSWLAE
Test: IKKα KinEASE FP kinase activity assay, RANKL-stimulated RAW […] cells
Format: cell-based

IC50: ~57.6 µM
Structure (SMILES): O=C1C[C@@H](O[C@@H]2O[C@H](CO)[C@@H](O)[C@H](O)[C@H]2O)CO1 [kinsenoside, 3-(R)-3-β-D-glucopyranosyloxybutanolide]
